Results from ChEMBL document CHEMBL1201862, “PubChem BioAssay data set” (2004).
Active and inactive are the calls of the source.

Key:
Ephrin type-A receptor 4 = Ephrin type-A receptor 4 (Mus musculus, UniProt Q03137); assay: inhibitors of EphA4 binding to KYL peptide, primary screen, biochemical, colorimetric, mouse EphA4 (AID 689); type: functional
[1] = target: FAD-linked sulfhydryl oxidase ALR (Homo sapiens, UniProt P55789); assay: inhibitors of human ALR sulfhydryl oxidase, dose response, biochemical, H2O2 detection, luminescence, cherry-pick (AID 493248)
[2] = target: T1, Rac GTPase-activating protein 1 (Homo sapiens, UniProt Q9H0H5); assay: MgcRacGAP GTPase-activating activity inhibitors, confirmation, biochemical, ADP Hunter fluorescence, primary and confirmatory (AID 624330); type: functional
T1 sequence (Q9H0H5 whole entry): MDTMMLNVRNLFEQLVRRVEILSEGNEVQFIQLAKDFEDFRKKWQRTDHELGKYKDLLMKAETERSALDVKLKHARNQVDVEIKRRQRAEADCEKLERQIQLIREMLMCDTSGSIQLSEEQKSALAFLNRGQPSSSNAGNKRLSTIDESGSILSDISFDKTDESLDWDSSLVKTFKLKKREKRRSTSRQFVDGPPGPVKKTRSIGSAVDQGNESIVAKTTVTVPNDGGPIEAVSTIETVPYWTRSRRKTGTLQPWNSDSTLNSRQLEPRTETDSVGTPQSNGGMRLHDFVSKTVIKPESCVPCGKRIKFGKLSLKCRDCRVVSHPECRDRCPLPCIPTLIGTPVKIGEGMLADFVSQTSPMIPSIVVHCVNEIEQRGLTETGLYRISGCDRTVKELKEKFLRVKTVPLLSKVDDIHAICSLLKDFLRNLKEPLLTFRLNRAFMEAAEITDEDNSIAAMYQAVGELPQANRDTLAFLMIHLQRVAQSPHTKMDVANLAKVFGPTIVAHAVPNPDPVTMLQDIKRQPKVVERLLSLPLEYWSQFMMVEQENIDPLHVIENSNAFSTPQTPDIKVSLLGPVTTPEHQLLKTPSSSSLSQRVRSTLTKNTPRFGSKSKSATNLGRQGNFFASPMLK

cells [3] = type: functional, cell-based
[4] = target: T2, Intestinal-type alkaline phosphatase (Homo sapiens, UniProt P09923); assay: human intestinal alkaline phosphatase activators, dose response, biochemical, luminescence, uHTS hits (AID 463120); type: functional
[5] = target: T2, Intestinal-type alkaline phosphatase; assay: human IAP activators, dose response, biochemical, luminescent, uHTS hits, set 2 (AID 488817); type: functional;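 further: potency of activators that raise enzyme activity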
cells [6] = type: functional, cell-based; remark: listed apart in the source
INS1 = assay: beta cell apoptosis inhibitors, cytokine rescue, dose response, luminescence, retest (AID 449756); type: functional, cell-based; details: Rattus norvegicus;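 further: cell death triggered by IL-1 beta plus TNF-alpha plus IFN-gamma mixture; protective hits raise ATP signal compared with cytokine alone wells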
[7] = target: T3, Alkaline phosphatase, tissue-nonspecific isozyme (Homo sapiens, UniProt P05186); assay: TNAP enzyme activators, dose response, selectivity assay for human IAP activator project, biochemical, TNAP isozyme, human IAP uHTS hits (AID 488886); type: functional;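 further: potency of compounds raising TNAP activity as a selectivity check on IAP activators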
T3 sequence (P05186 whole entry): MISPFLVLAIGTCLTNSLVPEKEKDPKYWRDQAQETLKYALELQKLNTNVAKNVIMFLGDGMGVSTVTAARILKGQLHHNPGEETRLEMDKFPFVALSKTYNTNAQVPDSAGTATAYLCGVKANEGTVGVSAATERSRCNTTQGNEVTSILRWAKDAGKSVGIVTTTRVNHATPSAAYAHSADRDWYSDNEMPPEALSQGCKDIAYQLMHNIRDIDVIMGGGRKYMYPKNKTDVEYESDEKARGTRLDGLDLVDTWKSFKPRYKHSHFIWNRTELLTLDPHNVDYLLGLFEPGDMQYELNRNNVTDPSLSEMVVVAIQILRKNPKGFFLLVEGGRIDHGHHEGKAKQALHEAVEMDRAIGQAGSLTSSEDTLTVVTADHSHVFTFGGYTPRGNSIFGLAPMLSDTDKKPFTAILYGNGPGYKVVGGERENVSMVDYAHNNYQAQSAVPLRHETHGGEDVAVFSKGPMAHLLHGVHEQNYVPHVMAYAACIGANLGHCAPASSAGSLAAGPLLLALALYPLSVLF

[8] = target: T4, Mannose-6-phosphate isomerase (Homo sapiens, UniProt P34949); assay: human PMI inhibitors, high substrate, primary screen, biochemical, fluorescence intensity, high mannose 6-phosphate (AID 1220)
T4 sequence (P34949 whole entry): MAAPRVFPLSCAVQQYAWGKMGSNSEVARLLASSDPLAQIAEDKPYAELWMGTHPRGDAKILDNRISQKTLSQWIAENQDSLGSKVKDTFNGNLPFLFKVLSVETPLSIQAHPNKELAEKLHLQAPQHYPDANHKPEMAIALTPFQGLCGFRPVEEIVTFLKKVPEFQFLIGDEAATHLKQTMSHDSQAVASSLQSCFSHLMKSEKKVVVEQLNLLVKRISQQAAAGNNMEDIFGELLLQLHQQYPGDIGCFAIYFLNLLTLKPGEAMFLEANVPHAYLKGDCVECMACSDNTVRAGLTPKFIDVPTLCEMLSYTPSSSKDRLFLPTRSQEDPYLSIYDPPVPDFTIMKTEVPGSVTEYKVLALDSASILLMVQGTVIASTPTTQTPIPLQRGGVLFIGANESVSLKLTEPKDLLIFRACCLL

[9] = target: Intestinal-type alkaline phosphatase (Mus musculus, UniProt P24822); assay: PubChem AID 488874; type: functional
[10] = target: T4, Mannose-6-phosphate isomerase; assay: inhibitors of human PMI, primary screen, biochemical, fluorescence intensity, coupled assay (AID 1209)
[11] = Luminescence-based dose response cell-based high throughput screening assay for cytotoxic compounds using the IEC-6 intestinal epithelial cell line. [Related pubchem assays: 1858 (Summary AID.), 1825 (Counterscreen.), 1907 (Confirmation screen.)]; type: functional
[12] = inhibitors of SNCA 5'UTR-driven translation, confirmation, luminescence, H4 neuroglioblastoma cells, dose confirmation (AID 2454); type: functional, cell-based;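 further: H4 neuroglioblastoma cells carrying an alpha-synuclein 5'UTR luciferase reporter; potency for inhibition of the luciferase signal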
[13] = inhibitors of firefly luciferase expression or activity, dose response, H4 neuroglioma cells, luminescence (AID 1990); type: functional, cell-based
[14] = luciferase reporter signal reduction – luminescence, H4-C neuroglioblastoma cells, dose response (AID 2458); type: functional, cell-based;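 further: H4 neuroglioblastoma cells stably carrying a luciferase reporter gene fusion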
[15] = inhibitors of SNCA 5'UTR-driven reporter translation, confirmation, H4 neuroglioma cells, luminescence (AID 1988); type: functional, cell-based
cells [16] = type: functional, cell-based; remark: listed apart in the source
[17] = cytotoxicity in HEK-293T cells, dose response, cytotoxicity control for TCR NF-kB inhibitor project, luminescence, T-cell screen hits (AID 489026); type: functional, cell-based;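 further: cells exposed to compound about 14 hours before the viability readout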
[18] = cytotoxicity in HEK-293T cells, dose response, cytotoxicity control for BCR NF-kB inhibitor project, luminescence, B-cell screen hits (AID 489021); type: functional, cell-based;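 further: HEK-293T cells carrying an NF-kB luciferase reporter; cells exposed to compound for about 14 hours before viability readout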
[19] = Luminescence Cell-Based Dose Response HTS to Identify Inhibitors of 5'UTR Stem-Loop Driven Prion Protein mRNA Translation in H4 Neuroglioblastoma Cells. [Related pubchem assays: 1827 (Project Summary), 1813 (Primary HTS)]; type: functional
[20] = inhibitors of Bluetongue virus cytopathic effect, confirmation, arbovirus, BSR cells (AID 1250); type: functional;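 further: protection from viral cytopathic effect measured as cell viability by ATP luminescence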
[21] = inhibitors of intracellular T. cruzi replication, confirmation, NIH3T3 host cells, beta-gal luminescence (AID 2044); type: functional, cell-based;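 further: intracellular parasites grown in NIH/3T3 mouse fibroblasts as host cells; luminescent beta-galactosidase reporter signal from transgenic T. cruzi replicating inside host cells; inhibitors lower the luminescence signal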
[22] = cytotoxicity toward NIH3T3 fibroblasts, dose response, counter-screen, cell-based, ATP luminescence, mouse fibroblasts (AID 2010); type: functional;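 further: cells exposed to compound for about 90 hours before reading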
cells [23] = assay: cells
Cytochrome P450 2C19 = Cytochrome P450 2C19 (Homo sapiens, UniProt P33261); assay: Cytochrome panel assay with activity outcomes. Panel member name: p450-cyp2c19 Compounds with AC50 equal or less than 10 uM are considered active; type: functional; details: read-out: AC50
Vero = assay: host cell cytotoxicity of antiviral hits, dose response, cytotoxicity control for West Nile virus antiviral project, secondary assay (AID 1650); type: functional; details: Chlorocebus sabaeus
Cytochrome P450 3A4 = Cytochrome P450 3A4 (Homo sapiens, UniProt P08684);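 further: CYP3A4 tested as one member of a cytochrome P450 panel screen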
Genome polyprotein = Genome polyprotein (Hepatitis C virus, UniProt Q2Q167); assay: HCV core protein dimerization inhibitors, dose response, biochemical, TR-FRET (AID 2159); design: species or system Hepacivirus hominis;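 further: blocks dimerization of HCV core protein measured by TR-FRET between tagged core106 pairs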
[24] = HEp-2 cell cytotoxicity, dose response, cytotoxicity control for RSV inhibitor project, HTS (AID 2410); type: functional; details: human respiratory syncytial virus
cells [25] = assay: cells; remark: listed apart in the source
[26] = target: Induced myeloid leukemia cell differentiation protein Mcl-1 (Homo sapiens, UniProt Q07820); type: functional
[27] = target: T5, Carboxy-terminal domain RNA polymerase II polypeptide A small phosphatase 1 (Homo sapiens, UniProt Q9GZU7); assay: inhibitors of CTDSP1, concentration-response testing, biochemical assay, absorbance-based, actives from ultra-high-throughput screening (AID 540297); type: functional
T5 sequence (Q9GZU7 whole entry): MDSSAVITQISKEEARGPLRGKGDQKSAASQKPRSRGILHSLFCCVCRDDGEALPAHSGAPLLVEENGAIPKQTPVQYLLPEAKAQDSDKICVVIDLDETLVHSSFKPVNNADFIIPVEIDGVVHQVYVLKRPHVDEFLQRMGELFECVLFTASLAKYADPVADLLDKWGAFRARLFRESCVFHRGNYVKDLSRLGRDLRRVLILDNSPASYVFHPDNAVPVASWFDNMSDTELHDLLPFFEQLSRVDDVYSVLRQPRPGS

H9c2 = assay: cells; type: functional, cell-based; details: Rattus norvegicus, H9c2, Myocardium;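 further: confirmatory concentration-response retest of ultra-high-throughput screening hits for modulation of myocardial damage; cell death induced by hydrogen peroxide oxidative stress; compound pretreatment for 60 min then peroxide exposure for 2 h; potency is for protecting the cells against peroxide damage rather than for killing them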
[28] = microbe, parasite or virus in culture; type: functional; details: Mycobacterium tuberculosis
[29] = M. tuberculosis growth inhibition, HTS (AID 449762); type: functional
[30] = target: 5-hydroxytryptamine receptor 2A (Mus musculus, UniProt P35363); type: functional, cell-based;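 further: CHO-K1 cells with tagged receptor and beta-arrestin; agonist potency measured as compound-induced activation of the receptor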
Mu-type opioid receptor = Mu-type opioid receptor (Homo sapiens, UniProt P35372); type: functional, cell-based;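 further: U2OS cells with beta-arrestin recruitment to OPRM1 by beta-gal complementation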
Chain of Mu-type opioid receptor (P35372 whole entry): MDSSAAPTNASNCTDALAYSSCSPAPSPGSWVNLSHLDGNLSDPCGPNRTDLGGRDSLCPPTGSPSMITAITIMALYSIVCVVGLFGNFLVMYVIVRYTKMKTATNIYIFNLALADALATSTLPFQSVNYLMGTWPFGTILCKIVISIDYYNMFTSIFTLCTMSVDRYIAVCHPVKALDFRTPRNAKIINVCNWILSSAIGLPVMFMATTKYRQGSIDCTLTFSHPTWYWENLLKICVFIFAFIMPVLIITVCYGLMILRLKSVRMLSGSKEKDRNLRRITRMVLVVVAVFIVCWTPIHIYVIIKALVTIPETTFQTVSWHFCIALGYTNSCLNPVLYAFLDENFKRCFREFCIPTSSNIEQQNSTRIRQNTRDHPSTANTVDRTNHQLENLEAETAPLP

T2 sequence (P09923 whole entry): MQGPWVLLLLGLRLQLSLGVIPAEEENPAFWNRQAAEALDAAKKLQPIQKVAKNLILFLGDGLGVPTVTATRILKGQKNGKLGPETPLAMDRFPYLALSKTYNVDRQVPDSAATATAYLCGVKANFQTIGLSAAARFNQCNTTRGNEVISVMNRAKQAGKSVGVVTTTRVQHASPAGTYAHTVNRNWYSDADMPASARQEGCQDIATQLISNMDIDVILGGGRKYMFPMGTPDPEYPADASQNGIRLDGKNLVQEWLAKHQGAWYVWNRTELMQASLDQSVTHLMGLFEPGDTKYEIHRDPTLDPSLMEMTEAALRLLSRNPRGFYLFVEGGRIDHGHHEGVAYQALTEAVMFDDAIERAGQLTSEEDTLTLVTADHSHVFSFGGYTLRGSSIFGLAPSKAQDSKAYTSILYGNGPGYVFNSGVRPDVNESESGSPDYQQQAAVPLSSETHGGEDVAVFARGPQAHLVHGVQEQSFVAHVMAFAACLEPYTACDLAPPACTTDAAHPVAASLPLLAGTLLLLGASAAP
Chain of Genome polyprotein (Q2Q167 whole entry): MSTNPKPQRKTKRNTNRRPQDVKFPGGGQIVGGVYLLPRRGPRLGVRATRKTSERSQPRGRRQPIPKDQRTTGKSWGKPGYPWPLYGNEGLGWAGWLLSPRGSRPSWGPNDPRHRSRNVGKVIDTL
Chain of Cytochrome P450 2C19 (P33261 whole entry): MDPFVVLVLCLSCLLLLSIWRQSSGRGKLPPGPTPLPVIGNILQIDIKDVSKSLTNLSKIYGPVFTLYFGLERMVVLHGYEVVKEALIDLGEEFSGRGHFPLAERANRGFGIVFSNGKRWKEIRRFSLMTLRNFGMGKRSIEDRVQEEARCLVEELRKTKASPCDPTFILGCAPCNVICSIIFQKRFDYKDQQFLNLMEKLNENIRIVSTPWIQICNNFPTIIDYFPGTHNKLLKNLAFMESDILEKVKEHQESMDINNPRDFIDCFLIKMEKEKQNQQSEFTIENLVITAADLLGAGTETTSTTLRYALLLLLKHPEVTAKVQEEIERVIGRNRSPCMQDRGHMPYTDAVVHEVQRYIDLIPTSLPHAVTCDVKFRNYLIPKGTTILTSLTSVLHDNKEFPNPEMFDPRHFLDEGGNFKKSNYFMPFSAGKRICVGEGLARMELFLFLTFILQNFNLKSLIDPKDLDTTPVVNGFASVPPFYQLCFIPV
Chain of 5-hydroxytryptamine receptor 2A (P35363 whole entry): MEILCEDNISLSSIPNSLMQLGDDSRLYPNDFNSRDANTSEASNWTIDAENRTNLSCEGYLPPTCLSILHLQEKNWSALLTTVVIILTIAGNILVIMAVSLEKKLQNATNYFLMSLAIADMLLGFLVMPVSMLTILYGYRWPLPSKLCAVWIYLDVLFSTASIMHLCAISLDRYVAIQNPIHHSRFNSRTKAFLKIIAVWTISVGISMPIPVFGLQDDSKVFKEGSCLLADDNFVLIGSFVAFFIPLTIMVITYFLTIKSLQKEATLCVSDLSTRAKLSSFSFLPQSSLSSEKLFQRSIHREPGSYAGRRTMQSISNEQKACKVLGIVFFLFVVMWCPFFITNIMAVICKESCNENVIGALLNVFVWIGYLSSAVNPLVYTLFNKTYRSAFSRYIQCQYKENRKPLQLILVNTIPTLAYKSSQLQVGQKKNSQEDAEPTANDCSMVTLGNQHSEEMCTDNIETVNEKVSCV
Chain of Ephrin type-A receptor 4 (Q03137 whole entry): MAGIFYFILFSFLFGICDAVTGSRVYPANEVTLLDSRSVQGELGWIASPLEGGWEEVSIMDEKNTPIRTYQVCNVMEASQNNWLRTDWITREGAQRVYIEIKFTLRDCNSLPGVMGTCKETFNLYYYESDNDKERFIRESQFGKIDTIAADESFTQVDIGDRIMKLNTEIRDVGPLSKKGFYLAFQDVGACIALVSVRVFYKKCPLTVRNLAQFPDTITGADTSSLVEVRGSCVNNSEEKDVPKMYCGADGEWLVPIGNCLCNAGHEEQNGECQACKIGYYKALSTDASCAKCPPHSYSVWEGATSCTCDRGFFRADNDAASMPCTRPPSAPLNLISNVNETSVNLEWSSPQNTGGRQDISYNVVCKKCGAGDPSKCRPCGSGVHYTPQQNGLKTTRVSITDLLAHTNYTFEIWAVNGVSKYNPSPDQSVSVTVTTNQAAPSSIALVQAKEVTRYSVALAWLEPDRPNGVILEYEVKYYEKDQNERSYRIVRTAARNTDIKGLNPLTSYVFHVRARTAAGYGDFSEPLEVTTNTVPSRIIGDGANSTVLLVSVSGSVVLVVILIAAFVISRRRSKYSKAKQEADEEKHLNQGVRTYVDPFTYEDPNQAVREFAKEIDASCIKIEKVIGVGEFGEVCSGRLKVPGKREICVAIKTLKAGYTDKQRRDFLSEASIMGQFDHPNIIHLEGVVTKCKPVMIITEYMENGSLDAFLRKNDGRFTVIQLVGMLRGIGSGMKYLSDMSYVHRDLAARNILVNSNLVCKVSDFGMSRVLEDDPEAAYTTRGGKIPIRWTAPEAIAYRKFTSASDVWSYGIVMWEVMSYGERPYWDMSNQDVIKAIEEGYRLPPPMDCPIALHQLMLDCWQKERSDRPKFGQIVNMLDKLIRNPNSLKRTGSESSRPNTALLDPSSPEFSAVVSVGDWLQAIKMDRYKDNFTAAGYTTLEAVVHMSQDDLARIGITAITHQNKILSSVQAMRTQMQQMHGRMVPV
Chain of Induced myeloid leukemia cell differentiation protein Mcl-1 (Q07820 whole entry, the tested form may be a part): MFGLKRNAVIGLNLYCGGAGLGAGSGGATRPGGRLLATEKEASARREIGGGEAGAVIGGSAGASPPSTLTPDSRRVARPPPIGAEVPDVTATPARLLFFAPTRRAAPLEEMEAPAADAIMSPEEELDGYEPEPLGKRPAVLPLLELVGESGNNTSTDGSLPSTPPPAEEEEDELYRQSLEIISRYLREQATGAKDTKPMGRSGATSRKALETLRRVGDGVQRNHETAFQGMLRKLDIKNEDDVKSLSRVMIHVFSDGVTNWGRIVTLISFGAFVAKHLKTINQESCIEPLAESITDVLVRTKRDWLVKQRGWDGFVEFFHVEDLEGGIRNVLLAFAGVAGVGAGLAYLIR
Chain of Cytochrome P450 3A4 (P08684 whole entry): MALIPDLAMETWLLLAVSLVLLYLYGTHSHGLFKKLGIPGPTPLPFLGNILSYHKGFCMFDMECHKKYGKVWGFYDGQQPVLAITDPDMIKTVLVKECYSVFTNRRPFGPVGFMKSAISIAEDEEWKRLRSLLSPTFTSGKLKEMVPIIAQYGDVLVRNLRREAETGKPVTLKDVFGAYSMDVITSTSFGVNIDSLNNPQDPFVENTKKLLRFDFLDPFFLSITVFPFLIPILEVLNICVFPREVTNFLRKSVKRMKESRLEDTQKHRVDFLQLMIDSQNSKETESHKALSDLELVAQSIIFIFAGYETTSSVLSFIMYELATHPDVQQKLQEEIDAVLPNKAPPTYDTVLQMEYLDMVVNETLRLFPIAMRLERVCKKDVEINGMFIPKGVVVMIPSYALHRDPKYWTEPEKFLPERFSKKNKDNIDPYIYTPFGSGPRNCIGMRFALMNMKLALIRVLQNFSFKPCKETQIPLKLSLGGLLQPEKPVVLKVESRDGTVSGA
Chain of Intestinal-type alkaline phosphatase (Mus musculus, UniProt P24822) (P24822 whole entry): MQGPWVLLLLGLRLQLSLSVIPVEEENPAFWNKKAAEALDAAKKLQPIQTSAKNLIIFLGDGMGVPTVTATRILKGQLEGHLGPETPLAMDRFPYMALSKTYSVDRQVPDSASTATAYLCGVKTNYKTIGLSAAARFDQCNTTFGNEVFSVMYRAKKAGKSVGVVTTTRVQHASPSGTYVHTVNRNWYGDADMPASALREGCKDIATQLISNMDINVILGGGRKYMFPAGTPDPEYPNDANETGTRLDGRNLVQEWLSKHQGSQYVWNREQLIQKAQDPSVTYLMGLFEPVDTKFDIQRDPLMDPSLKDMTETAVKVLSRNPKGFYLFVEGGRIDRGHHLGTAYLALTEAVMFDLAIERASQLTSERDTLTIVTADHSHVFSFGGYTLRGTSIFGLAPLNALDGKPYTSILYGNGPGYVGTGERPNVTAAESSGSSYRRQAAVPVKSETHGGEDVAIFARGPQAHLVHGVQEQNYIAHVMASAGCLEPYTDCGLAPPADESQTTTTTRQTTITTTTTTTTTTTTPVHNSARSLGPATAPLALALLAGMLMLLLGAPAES
Chain of FAD-linked sulfhydryl oxidase ALR (P55789 whole entry): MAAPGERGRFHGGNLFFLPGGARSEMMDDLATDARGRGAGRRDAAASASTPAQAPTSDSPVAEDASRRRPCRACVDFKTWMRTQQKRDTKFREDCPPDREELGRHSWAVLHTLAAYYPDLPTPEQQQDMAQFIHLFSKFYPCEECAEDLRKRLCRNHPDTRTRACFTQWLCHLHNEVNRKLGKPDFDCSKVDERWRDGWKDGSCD

Nc1ccc(Br)c2c1C(=O)c1ccccc1C2=O
IC50 (Ephrin type-A receptor 4): 13.5 µM (active)

CCn1c(C)nc2cc(C(=O)N/N=C/c3cccc(O)c3O)ccc21
AC50 [1]: 3.82 µM (active) | IC50 [2]: 119 µM (active) | EC50 (cells [3]): > 350 µM (not active) | EC50 [4]: 6.34 µM (active) | EC50 [5]: 9.71 µM (active) | EC50 (cells [6]): 10.9 µM (active) | AC50 (INS1): 2.79 µM (active) | EC50 [7]: 11 µM (active) | IC50 [8]: > 50 µM (not active) | IC50 [9]: 44 µM (active) | IC50 [10]: > 50 µM (not active)

CCCCCC(=O)N[C@@H](c1ccccc1)[C@@H](O)C(=O)O[C@H]1C[C@@]2(O)[C@@H](OC(=O)c3ccccc3)C3[C@](C)(C(=O)[C@H](OC(C)=O)C(=C1C)C2(C)C)[C@@H](O)C[C@H]1OC[C@@]31OC(C)=O (stereo not given in full)
IC50 [11]: 0.0618 µM (active) | EC50 [12]: 0.402 µM (active) | EC50 [13]: < 0.1 µM (active) | EC50 [14]: 0.229 µM (active) | EC50 [15]: < 0.1 µM (active) | EC50 (cells [16]): 0.253 µM (active) | IC50 [17]: > 80 µM (inactive)

CCOc1ccc(-c2cc(CCCC(=O)NCc3ccco3)no2)cc1
IC50 [18]: > 80 µM (inactive) | EC50 [12]: 1.87 µM (active) | EC50 [13]: 14.5 µM (active) | EC50 [14]: 1.22 µM (active) | EC50 [19]: 17.4 µM (active) | EC50 [15]: < 0.1 µM (active) | EC50 (cells [16]): 2.78 µM (active)

COCCn1c(-c2ccccc2)cnc1SCC(=O)Nc1cccc2ccccc12
IC50 [20]: 27.4 µM (active)

CCc1cc(C(=O)O)c(NC(=O)c2cc(OC)c(OC)c(OC)c2)s1
IC50 [20]: 29.2 µM (active)

CN1CCN(CC(C)(C)NS(=O)(=O)c2ccc(Cl)cc2)CC1
EC50 [21]: < 0.1 µM (active) | EC50 [22]: > 60 µM (not active) | EC50 (cells [23]): 0.203 µM (active)

Cc1ccc(-c2cc(C(F)F)n3ncc(C(=O)Nc4c(C)nn(Cc5c(Cl)cccc5Cl)c4C)c3n2)cc1
AC50 (Cytochrome P450 2C19): 7.94 µM (inconclusive) | CC50 (Vero): > 100 µM (active) | AC50 (Cytochrome P450 3A4): inconclusive

Cc1cc(C(=O)N/N=C2\CC(=O)c3ccccc32)c(C)n1-c1ccc(F)cc1
IC50 (Genome polyprotein): > 49.8 µM (not active)

CN(C)CCCCCN(C)Cc1cc2ccccc2o1
EC50 [21]: < 0.1 µM (active) | EC50 [22]: 16.4 µM (active) | EC50 (cells [23]): 0.025 µM (active)

CCC(C)[C@H](NC(=O)OC(C)(C)C)C(=O)N/N=C/c1ccc2cc(OC)ccc2n1 (stereo not given in full)
CC50 [24]: 36.2 µM (active) | IC50 (cells [25]): 39 µM (active)

Cc1cc(C)n2c(SC/C(O)=C(\C#N)c3nc4ccccc4[nH]3)nnc2n1
IC50 (Genome polyprotein): > 49.8 µM (not active) | IC50 [26]: 1.15 µM (active) | IC50 [27]: 5.01 µM (active)

COc1ccccc1NC(=O)COc1cccc2c1CCNC2=O
CC50 [24]: 39.1 µM (active) | IC50 (cells [25]): 28.8 µM (active) | IC50 (H9c2): 8.7 µM (active)

CC(C)C[C@H]1C(=O)N2CCC[C@H]2[C@]2(O)O[C@](NC(=O)C3C=C4c5cccc6[nH]c(Br)c(c56)C[C@H]4N(C)C3)(C(C)C)C(=O)N12 (stereo not given in full)
CC50 [28]: > 40 µM (active) | IC50 [29]: > 100 µM (active) | EC50 [30]: 0.0038 µM (active) | EC50 (Mu-type opioid receptor): 92.5 µM (inactive)
